Measurements from patent US12428397B2, “Factor XI activation inhibitors” (Merck Sharp & Dohme LLC, priority 2020, dated 2025).

Each molecule was assayed against T1, Human coagulation factor (F)XI (Homo sapiens, UniProt P03951) (assay: Inhibition of FXIIa mediated activation of FXI (activation of human Factor XI to XIa by human Factor α-XIIa)). Details: human FXI pre-incubated with compound 30 min at 22° C., activation by human FXIIa 60 min, z-GPR-AFC substrate fluorescence read-out, 4 parameter logistic fit; read-out: Inhibition of FXIIa meditated activation of FXI.
T1 construct: purchased Haematologic Technologies Inc. (FXI); Enzyme Research Laboratories (FXIIa) HCXI-150 (FXI); HFXIIa (FXIIa)
T1 sequence (P03951 19-625): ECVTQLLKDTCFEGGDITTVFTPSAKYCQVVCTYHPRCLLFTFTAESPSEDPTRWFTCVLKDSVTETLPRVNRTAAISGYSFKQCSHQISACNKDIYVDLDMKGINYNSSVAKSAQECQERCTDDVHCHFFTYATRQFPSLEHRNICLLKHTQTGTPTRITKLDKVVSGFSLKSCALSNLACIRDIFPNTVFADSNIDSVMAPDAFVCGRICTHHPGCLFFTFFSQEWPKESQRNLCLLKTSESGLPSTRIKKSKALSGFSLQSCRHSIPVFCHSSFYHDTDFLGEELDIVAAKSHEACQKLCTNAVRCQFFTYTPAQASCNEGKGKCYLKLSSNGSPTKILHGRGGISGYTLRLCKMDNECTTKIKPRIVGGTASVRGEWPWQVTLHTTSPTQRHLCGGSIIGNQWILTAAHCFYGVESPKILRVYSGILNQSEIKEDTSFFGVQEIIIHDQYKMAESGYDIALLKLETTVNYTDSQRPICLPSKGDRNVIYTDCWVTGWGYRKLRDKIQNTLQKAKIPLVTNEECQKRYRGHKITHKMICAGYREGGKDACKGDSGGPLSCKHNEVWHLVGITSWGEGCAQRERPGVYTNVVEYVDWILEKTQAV
Assay type: biochemical
Description: Inhibition of FXIIa Mediated Activation of FXI
Activation of Human Factor XI to XIa by Human Factor α-XIIa
The assay was performed in 50 mM HEPES, 150 mM NaCl, 5 mM CaCl2, 0.1% PEG-8000, pH 7.4 buffer in black, flat-bottom, polystyrene microplates (Corning, Cat #3573). Serial dilutions (10-point, 3.333-fold) of the test compounds delivered as 10 mM DMSO stocks were prepared in the Labcyte Echo-qualified PP 384 well microplates (Labcyte, Cat #P-05525). Human coagulation factor (F)XI (Haematologic Technologies Inc., Cat #HCXI-150, concentration 46 nM, 19.5 uL) was pre-incubated with 0.5 uL of the test compounds for 30 min at 22° C. The activation was initiated by addition of 10 uL of human coagulation factor (F)XIIa (Enzyme Research Laboratories, Cat #HFXIIa, concentration 30 nM) and the reaction proceeded for 60 min at 22° C., after which it was quenched by addition of a selective inhibitor of FXIIa (Compound 54 in WO2018093695) concentration 600 uM in DMSO, 1 uL. 10 min after the quench, 29 uL of z-GPR-AFC substrate (Sigma, Cat #C0980-10MG, concentration 200 uM) was added into each well and the detection reaction proceeded for 60 min at 22° C. Fluorescence at 405/510 nm was measured in end-point mode using an Envision plate-reader (Perkin Elmer). IDBS Activity Base XE (ABase) analysis using 4 parameter logistic fit was performed to determine Minimum, Maximum, EC50, and Slope Factor for each compound.

SMILES	EC50
O=C(c1cc(C(=O)N2CCCCC2)c2cc(OCc3ncc(Cl)cc3Cl)ncc2c1)N1CCC(n2ccnn2)CC1 [Example 5, (4-(1H-1,2,3-triazol-1-yl)piperidin-1-yl)(3-((3,5-dichloropyridin-2-yl)methoxy)-5-(piperidine-1-carbonyl)isoquinolin-7-yl)methanone]	41 nM
O=C(c1cc(C(=O)N2CCCCC2)c2cc(OCc3ccc(Cl)cc3Cl)ncc2c1)N1CCC(n2cccn2)CC1 [Example 13, (4-(1H-pyrazol-1-yl)piperidin-1-yl)(3-((2,4-dichlorobenzyl)oxy)-5-(piperidine-1-carbonyl)isoquinolin-7-yl)methanone]	49.5 nM
N#CC1(c2ccccc2)CCN(C(=O)c2cc(C(=O)N3CCCCC3)c3cc(OCc4nc5ccccc5s4)ncc3c2)CC1 [Example 1, 1-(3-(benzo[d]thiazol-2-ylmethoxy)-5-(piperidine-1-carbonyl)isoquinoline-7-carbonyl)-4-phenylpiperidine-4-carbonitrile]	37.9 nM
N#Cc1ccc(COc2cc3c(C(=O)N4CCCCC4)cc(C(=O)N4CCC(n5cccn5)CC4)cc3cn2)cn1 [Example 9, 5-(((7-(4-(1H-pyrazol-1-yl)piperidine-l-carbonyl)-5-(piperidine-1-carbonyl)isoquinolin-3-yl)oxy)methyl)picolinonitrile]	45.7 nM
O=C(c1cc(C(=O)N2CCCCC2)c2cc(OCc3ncc(C(F)(F)F)cc3Cl)ncc2c1)N1CCC(n2ccnn2)CC1 [Example 3, (4-(1H-1,2,3-triazol-1-yl)piperidin-1-yl)(3-((3-chloro-5-(trifluoromethyl)pyridin-2-yl)methoxy)-5-(piperidine-1-carbonyl)isoquinolin-7-yl)methanone]	32.7 nM
O=C(c1cc(C(=O)N2CCCCC2)c2cc(OCc3ccc(C(F)(F)F)nc3)ncc2c1)N1CCC(n2cccn2)CC1 [Example 10, (4-(1H-pyrazol-1-yl)piperidin-1-yl)(5-(piperidine-1-carbonyl)-3-((6-(trifluoromethyl)pyridin-3-yl)methoxy)isoquinolin-7-yl)methanone]	33.2 nM

Now those with a lower EC50, led by results:

EC50	SMILES
8.8 nM	O=C(c1cc(C(=O)N2CCCCC2)c2cc(OCc3ncc(Cl)cc3Cl)ncc2c1)N1CCC(n2cccn2)CC1 [Example 14, (4-(1H-pyrazol-1-yl)piperidin-1-yl)(3-((3,5-dichloropyridin-2-yl)methoxy)-5-(piperidine-1-carbonyl)isoquinolin-7-yl)methanone]
24.3 nM	N#CC1(c2ccccn2)CCN(C(=O)c2cc(C(=O)N3CCCCC3)c3cc(OCc4ncc(C(F)(F)F)cc4Cl)ncc3c2)CC1 [Example 12, 1-(3-((3-chloro-5-(trifluoromethyl)pyridin-2-yl)methoxy)-5-(piperidine-1-carbonyl)isoquinoline-7-carbonyl)-4-(pyridin-2-yl)piperidine-4-carbonitrile]
13.4 nM	O=C(c1cc(C(=O)N2CCCCC2)c2cc(OCc3ncc(C(F)(F)F)cc3Cl)ncc2c1)N1CCC(n2cccn2)CC1 [Example 8, (4-(1H-pyrazol-1-yl)piperidin-1-yl)(3-((3-chloro-5-(trifluoromethyl)pyridin-2-yl)methoxy)-5-(piperidine-1-carbonyl)isoquinolin-7-yl)methanone]
23.6 nM	N#Cc1cccc(COc2cc3c(C(=O)N4CCCCC4)cc(C(=O)N4CCC(C#N)(c5ccccc5)CC4)cc3cn2)c1 [Example 7, 1-(3-((3-cyanobenzyl)oxy)-5-(piperidine-1-carbonyl)isoquinoline-7-carbonyl)-4-phenylpiperidine-4-carbonitrile]
26.8 nM	N#CC1(c2ccccc2)CCN(C(=O)c2cc(C(=O)N3CCCCC3)c3cc(OCc4ncc(C(F)(F)F)cc4Cl)ncc3c2)CC1 [Example 2, 1-(3-((3-chloro-5-(trifluoromethyl)pyridin-2-yl)methoxy)-5-(piperidine-1-carbonyl)isoquinoline-7-carbonyl)-4-phenylpiperidine-4-carbonitrile]
19.9 nM	O=C(c1cc(C(=O)N2CCCCC2)c2cc(OCc3nc4ccccc4s3)ncc2c1)N1CCC(n2cccn2)CC1 [Example 15, (4-(1H-pyrazol-1-yl)piperidin-1-yl)(3-(benzo[d]thiazol-2-ylmethoxy)-5-(piperidine-1-carbonyl)isoquinolin-7-yl)methanone]
4.3 nM	N#CC1(c2ccccn2)CCN(C(=O)c2cc(C(=O)N3CCCCC3)c3cc(OCc4ncc(Cl)cc4Cl)ncc3c2)CC1 [Example 11, 1-(3-((3,5-dichloropyridin-2-yl)methoxy)-5-(piperidine-1-carbonyl)isoquinoline-7-carbonyl)-4-(pyridin-2-yl)piperidine-4-carbonitrile]
19.4 nM	N#CC1(c2ccccc2)CCN(C(=O)c2cc(C(=O)N3CCCCC3)c3cc(OCc4ncc(Cl)cc4Cl)ncc3c2)CC1 [Example 6, 1-(3-((3,5-dichloropyridin-2-yl)methoxy)-5-(piperidine-1-carbonyl)isoquinoline-7-carbonyl)-4-phenylpiperidine-4-carbonitrile]
8.5 nM	N#CC1(c2ccccc2)CCN(C(=O)c2cc(C(=O)N3CCCCC3)c3cc(OCCCc4cccnc4)ncc3c2)CC1 [Example 4, 4-phenyl-1-(5-(piperidine-1-carbonyl)-3-(3-(pyridin-3-yl)propoxy)isoquinoline-7-carbonyl)piperidine-4-carbonitrile]
